{"source": "patent US20260118345A1", "about": "“METHOD OF EVALUATING INTERCELLULAR INTERACTIONS IN NEUROINFLAMMATION” (FUJIFILM Corporation, priority 2023, published 2026)", "assay_type_in_all_cases": "cell-based, human", "key": {"[1]": {"tested_on": "NF-κB", "experiment": "NF-κB localization by immunostaining after LPS stimulation, two-dimensional three-cell-type co-culture of astrocytes, neurons and microglia", "details": "R-7050 10 μmol/L with LPS 100 ng/ml", "protocol": "(§1) Matrigel basement membrane matrix (Corning, 356234) diluted 120-fold with DMEM/F12 (Life technologies, 11320-033) was added to a 96-well plate at 65 μL/well and allowed to stand at 4° C. After 24 hours, the culture medium was replaced with a progenitor cell culture medium and used.\nAstrocyte precursor cells (XCell Science, XCS-AP-001-1V) were seeded in a 96-well plate at a density of 5×10^4 cells/well and cultured under the conditions of 37° C. and 5% CO2. The next day, the culture medium was replaced with the differentiation-inducing culture medium and further cultured for 5 days to differentiate into astrocytes.\n(§2) The neurons were produced by forcing expression of the Ngn2 gene from iPS cells (WO2014/148646A; and Zhang Y, et al., Neuron, 78:785-98, 2013), and the cells that had been frozen and stored were used. The cells that had been frozen and stored were thawed in a warm bath at 37° C., and after thawing, the cells were added to the co-culture medium and centrifuged at 600×g at room temperature for 5 minutes. After centrifugation, the supernatant was removed, the cells were suspended in 1 mL of the co-culture medium, and the number of cells was counted.\nAs the microglia, iPS cell-derived microglia (iCell (registered trademark) Microglia, FCDI, C1110) were used. The cells that had been frozen and stored were thawed in a warm bath at 37° C., and after thawing, the cells were added to the co-culture medium and centrifuged at 600×g at room temperature for 5 minutes. After centrifugation, the supernatant was removed, the cells were suspended in 1 mL of the co-culture medium, and the number of cells was counted.\nThe neurons and the microglia were mixed in a ratio of 3:1 and seeded on the astrocytes at 4×10^4 cells/well. The cells were cultured under the conditions of 37° C. and 5% CO2, and half of the culture medium was replaced three times a week.\nMicroglia were specifically stimulated by adding LPS (FUJIFILM Wako Pure Chemical Corporation, 124-05151) at 100 ng/mL to the two-dimensional co-culture that had been cultured for 4 weeks. The cells were fixed by treating, for 30 minutes, with a formaldehyde solution (FUJIFILM Wako Pure Chemical Corporation, 061-00416) diluted 10-fold with PBS(−) (FUJIFILM Wako Pure Chemical Corporation, 166-23555) without treatment, and at 0.5 hours, 1 hour, 3 hours, 6 hours, and 24 hours after the treatment.\nIn addition, in the two-dimensional co-culture that had been cultured for 19 days, LPS (FUJIFILM Wako Pure Chemical Corporation, 124-05151) was added at 100 ng/ml and R-7050 (Cayman Chemical Company, 16870), which is a TNFR1 inhibitor, was added at 10 μmol/L, and the effect of TNF-α on the intercellular interaction induced by LPS stimulation was evaluated. The cells were fixed by treating, for 30 minutes, with a formaldehyde solution (FUJIFILM Wako Pure Chemical Corporation, 061-00416) diluted 10-fold with PBS (−) (FUJIFILM Wako Pure Chemical Corporation, 166-23555) without treatment, and at 0.5 hours, 1 hour, 3 hours, 6 hours, and 24 hours after the treatment.\nThe fixed cells were washed with PBS (−), and blocking and permeabilization were performed by treating with a solution (1% BSA/0.2% Triton X-100) in which BSA (Sigma-Aldrich, A4161) and Triton (registered trademark) X-100 (BioVision, 2104-100) were diluted to 1% and 0.2% with PBS (−) for 30 minutes. […]"}, "[2]": {"tested_on": "two-cell-type co-culture of neurons and astrocytes", "experiment": "Neural activity by calcium imaging (BPM), two-dimensional two-cell-type co-culture of neurons and astrocytes", "details": "24 hours after stimulation (TNF-α 7.5 ng/mL or LPS 100 ng/mL)", "protocol": "Matrigel basement membrane matrix (Corning, 356234) diluted 120-fold with DMEM/F12 (Life technologies, 11320-033) was added to a 96-well plate at 65 μL/well and allowed to stand at 4° C. After 24 hours, the culture medium was replaced with a progenitor cell culture medium and used. Astrocyte precursor cells (XCell Science, XCS-AP-001-1V) were seeded in a 96-well plate at a density of 6×10^4 cells/well, cultured under the conditions of 37° C. and 5% CO2, after culture medium was replaced with the differentiation induction culture medium, further cultured for 5 days to differentiate into astrocytes. […] After centrifugation, the supernatant was removed, the cells were suspended in 1 mL of the co-culture medium, and the number of cells was counted. […] In addition, at 24 hours after the stimulation with LPS or TNF-α, the neural activity was evaluated by calcium imaging. […] After incubating for 1 hour under conditions of 37° C. and 5% CO2, the solution was replaced with a warmed (37° C.) recording solution, and the fluorescence was measured for 10 minutes with FDSS (registered trademark)/μcell (Hamamatsu Photonics K. K., C13299). The neural activity was evaluated by quantifying the number of peaks of calcium oscillation using Wave Checker Software (Hamamatsu Photonics K. K.)."}, "[3]": {"tested_on": "three-cell-type co-culture of neurons, astrocytes, and microglia", "experiment": "Neural activity by calcium imaging (BPM), two-dimensional three-cell-type co-culture of neurons, astrocytes and microglia", "details": "24 hours after stimulation (TNF-α 7.5 ng/mL or LPS 100 ng/mL)", "protocol": "Matrigel basement membrane matrix (Corning, 356234) diluted 120-fold with DMEM/F12 (Life technologies, 11320-033) was added to a 96-well plate at 65 μL/well and allowed to stand at 4° C. After 24 hours, the culture medium was replaced with a progenitor cell culture medium and used. Astrocyte precursor cells (XCell Science, XCS-AP-001-1V) were seeded in a 96-well plate at a density of 6×10^4 cells/well, cultured under the conditions of 37° C. and 5% CO2, after culture medium was replaced with the differentiation induction culture medium, further cultured for 5 days to differentiate into astrocytes. […] After centrifugation, the supernatant was removed, the cells were suspended in 1 mL of the co-culture medium, and the number of cells was counted. […] After centrifugation, the supernatant was removed, the cells were suspended in 1 mL of the co-culture medium, and the number of cells was counted. […] In addition, at 24 hours after the stimulation with LPS or TNF-α, the neural activity was evaluated by calcium imaging. […] After incubating for 1 hour under conditions of 37° C. and 5% CO2, the solution was replaced with a warmed (37° C.) recording solution, and the fluorescence was measured for 10 minutes with FDSS (registered trademark)/μcell (Hamamatsu Photonics K. K., C13299). […]"}, "[4]": {"tested_on": "NF-κB", "experiment": "NF-κB localization after TNF-α stimulation, two-dimensional two-cell-type co-culture of neurons and astrocytes", "details": "TNF-α 7.5 ng/mL; 3 hours after the stimulation", "protocol": "as §1\nAstrocyte precursor cells (XCell Science, XCS-AP-001-1V) were seeded in a 96-well plate at a density of 6×10^4 cells/well, cultured under the conditions of 37° C. and 5% CO2, after culture medium was replaced with the differentiation induction culture medium, further cultured for 5 days to differentiate into astrocytes.\nas §2, with “forcibly expressing” for “forcing expression of”, “genes” for “gene”, “from the” for “from”, “cells” for “cells (WO2014/148646A; and Zhang Y, et al., Neuron, 78:785-98, 2013),”\nIn the two-cell-type co-culture, the neurons were seeded on the astrocytes at 3×10^4 cells/well. […]\nAfter 3 hours of the stimulation with TNF-α, the cells were fixed by the method described in <1> of Test Example 1, and the localization of NF-κB was evaluated by the same method as in <1> of Test Example 1."}}, "data": [{"compound": "FC(F)(F)c1nnc2c(Sc3ccccc3)nc3ccc(Cl)cc3n12", "note": "[R-7050]", "values": [{"measurement": "activation of the microglia affecting other cells (intercellular interaction)", "setting": "[1]", "result": "suppressed"}, {"measurement": "nuclear signals of NF-κB, co-localization with microglia marker IBA1", "setting": "[1]; 1, 3, and 6 hours after the LPS stimulation", "result": "all co-localized with IBA1"}, {"measurement": "nuclear translocation of NF-κB", "setting": "[1]; 1, 3, and 6 hours after the LPS stimulation, co-culture cultured 19 days", "result": "only some cells"}]}, {"compound": "TNF-α", "values": [{"measurement": "BPM (the number of peaks of calcium oscillation per minute) as compared with the control", "setting": "[2]", "result": "increase"}, {"measurement": "BPM (the number of peaks of calcium oscillation per minute) as compared with the control", "setting": "[3]", "result": "increase"}, {"measurement": "nuclear translocation of NF-κB in GFAP-positive cells (astrocytes)", "setting": "[4]", "result": "occurred"}, {"measurement": "nuclear translocation of NF-κB in Neun-positive cells (neurons)", "setting": "[4]", "result": "not confirmed"}]}]}
